Assay [1] deals with T1, tandem WW domain of FBP21 (Homo sapiens, UniProt O75554).
T1 construct: multivalent peptide-polymer conjugates and the tandem WW domain of protein FBP21 determined at 8 °C by ITC measurements; made in house; host or cells: E. coli BL21 (DE3)
T1 sequence (O75554 122-196 limits assumed): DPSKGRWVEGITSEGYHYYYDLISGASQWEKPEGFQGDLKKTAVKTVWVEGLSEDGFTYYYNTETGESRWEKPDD
The assay can be described thus: Isothermal titration calorimetry (ITC) of peptide–polymer conjugates with tandem WW domain. Conditions: for Binding stoichiometry (peptide ligands per protein receptor): ratio of peptide ligand molecules relative to each protein binding site. Format: binding. The procedure: Binding studies with peptide–polymer conjugates were conducted employing isothermal titration calorimetry (ITC). This method enables the determination of the binding affinity of the multivalent ligands and elucidates the composition of the free energy of binding from the enthalpic and entropic contributions. In addition, the method can be used to determine the stoichiometry of the formed protein–ligand complex indicating the ratio of peptide ligand molecules relative to each protein binding site thereby giving valuable insights into the multivalency of binding and/or the degree of crosslinking. Thus, the method enables the identification of polymer–protein aggregates containing several polymers and proteins in a complex. No precipitation of the multicomponent aggregates that interfered with ITC measurements was observed during the experiments.
ITC-analysis (Figure 2) of the binding of multivalent peptide–polymer conjugates yielded KD values either corresponding to the polymer concentration or relative to the overall peptide concentration (N*KD). […] Binding in all cases was driven mainly by enthalpy, which clearly outweighed the observed entropy loss. In the seven peptide–polymer conjugates investigated, increased loading density of ligands led consistently to increased affinity of the multivalent ligand (Table 1). The most significant difference between dextran and the two other polymer carriers was the stoichiometry of the formed peptide-polymer–protein complex. […] Corresponding to the observed colloidal suspension/dispersion the stoichiometry of peptide ligands per protein receptor resulting from the ITC experiments was >2 for each of either pHPMA or hPG-based material, most pronounced for pHPMA with n = 2.6–2.8.
Figure 2 Representative ITC-measurements conducted at 8 °C with the peptide–polymer conjugates A) pHPMA-1 and B) Dex-2 showing an increase in affinity for the interaction of Dex-2 with the FBP21 tandem WW domains. […]
Isothermal Titration Calorimetry (ITC) Experiments
All samples for ITC were prepared with the phosphate buffer used for protein purification. A 10 mM stock solution of the peptide polymer conjugate in PBS was prepared and adjusted to pH 7.4 with a 50 mM NaOH solution in PBS. Aliquots of the stock solution were diluted to the final concentration of 1.5-2 mM with PBS.
Proteins were expressed as His- or GST-tagged fusion constructs in E.coli BL21 (DE3), purified by the corresponding affinity matrices, thrombin cleaved and applied to a gel filtration column (superdex-75) at 50 mM phosphate, 150 mM NaCl, 1 mM EDTA, pH 6.5 or 1xPBS, 1 mM EDTA, pH 7.4. Proteins were concentrated by Cen-trifugal Filter Units (regenerated cellulose, 3 kDa cut-off, Millipore) if necessary.
2 µl aliquots of peptide-polymer conjugates were titrated into a 50-70 µM protein solution inside the calorimeter cell (200 µl) while the reaction mixture was continuously stirred at 1000 rpm. Ligand concentration in the titration syringe was typically in 20-time excess corresponding to protein. Time intervals between injections were adjusted to 240 s which was sufficient for the heat signal to return to baseline level. In control experiments peptide-polymer conjugates were injected into […]
The heats of dilution were subtracted from the heats determined in the corresponding protein-ligand binding experiments. Automated baseline adjustment and peak integration were accomplished with the public-domain software NITPIC [5]. Estimation of best-fit parameter values by nonlinear least-squares fitting and calculation of 95% confidence intervals were performed with the public-domain software SEDPHAT [6].
Polymer-attached peptides were considered as monovalent ligands, and the tandem WW protein as receptor molecule with two similar independent binding sites. Binding was analysed in terms of simple hetero-association model. Corresponded calculation gives the microscopic binding constants that characterise the binding affinity of […]

Assay [2] concerns the target T1, tandem WW domain of FBP21. The conditions noted are these: peptide alone, read-out: dissociation constant (KD); cited from earlier work. The source says: ITC-analysis (Figure 2) of the binding of multivalent peptide–polymer conjugates yielded KD values either corresponding to the polymer concentration or relative to the overall peptide concentration (N*KD).
The next assay has as its target T2, Dex-2 (also: 6 peptides conjugated to 10 kDa dextran).
T2 chain: CGPPPRGPPPR-NH2
Description: ITC.

The next assay has as its target T3, Dex-3 (also: 8 peptides conjugated to 50 kDa dextran).
T3 chain: CGPPPRGPPPR-NH2
Description: ITC.

A further assay concerns the target T4, Dex-1 (also: 3 peptides conjugated to 10 kDa dextran).
T4 chain: CGPPPRGPPPR-NH2
Description: ITC.

The next assay addresses T5, hPG-1 (also: 3 peptides conjugated to hyperbranched polyglycerol).
T5 chain: CGPPPRGPPPR-NH2
Description: ITC.

Another assay deals with T6, pHPMA-2 (also: 9 peptides conjugated to pHPMA polymer).
T6 chain: CGPPPRGPPPR-NH2
The assay can be described thus: ITC.

The next assay addresses T7, P1.
T7 chain: GPPPRGPPPR-NH2
Description: ITC.

The target in a further assay is T8, pHPMA-1 (also: 6 peptides conjugated to pHPMA polymer).
T8 chain: CGPPPRGPPPR-NH2
Description: ITC.

The mark [3] stands for this setting: ITC at 8 °C, PBS pH 7.4, 2 µl aliquots of conjugate titrated into 50-70 µM protein, KD related to polymer concentration, 1:1 binding model, read-out: KD (binding affinities of peptide–polymer conjugates).

Where two headings read alike, the source gives them in different places. Ends that are not written are not given here.

As for Ac-GPPPRGPPPR-NH2 [Ac-P1], the Kd in assay [1] (setting [3]) was > 1000 µM; in assay [1] (ITC at 8 °C, PBS pH 7.4, related to overall peptide concentration, N = number of ligands per polymer, read-out: Rel. KD = N*KD (binding affinity related to overall peptide concentration)), > 1000 µM.

With CGPPPRGPPPR [Dex-1], in [1] (setting [3]), the Kd was 7 ± 1.2 µM. Besides, the “Binding stoichiometry (peptide ligands per protein receptor)” value in [1] (ITC at 8 °C) was 1.8.

As to CGPPPRGPPPR [Dex-2], in assay [1] (ITC at 8 °C), the “Binding stoichiometry (peptide ligands per protein receptor)” value was 1.4.

With CGPPPRGPPPR [Dex-3], in assay [1] (ITC at 8 °C), the “Binding stoichiometry (peptide ligands per protein receptor)” value amounted to 1.3.

On to “CGPPPRGPPPR [hPG-1, hyperbranched polyglycerol modified with maleimido groups, coupled with 3 copies of P2]”, for which the “Binding stoichiometry (peptide ligands per protein receptor)” value in assay [1] (ITC at 8 °C) is reported as 2.3.

As for “CGPPPRGPPPR [hPG-2, hyperbranched polyglycerol modified with maleimido groups, coupled with 4 copies of P2]”, the Kd in assay [1] (setting [3]) turned out to be 5 ± 1.3 µM. In addition, the “Binding stoichiometry (peptide ligands per protein receptor)” value in assay [1] (ITC at 8 °C) was 2.4.

In the case of “CGPPPRGPPPR [pHPMA-1, poly(N-(2-hydroxypropyl)methacrylamide) NCL-polymer conjugated with 6 copies of P2 by native chemical ligation]”, in assay [1] (setting [3]), the Kd turned out to be 5 ± 0.8 µM. Further, the “Binding stoichiometry (peptide ligands per protein receptor)” value in assay [1] (ITC at 8 °C) was found to be 2.6.

In the case of “CGPPPRGPPPR [pHPMA-2, poly(N-(2-hydroxypropyl)methacrylamide) NCL-polymer conjugated with 9 copies of P2 by native chemical ligation]”, in assay [1] (ITC at 8 °C), the “Binding stoichiometry (peptide ligands per protein receptor)” value is 2.8.

With GPPPRGPPPR-NH2 [P1], the Kd in assay [1] (monovalent ligand, tandem WW-domain of FBP21, as stated in the abstract, read-out: KD) was > 1000 µM; in assay [2], > 1000 µM.

B1: FBP21 tandem WW (protein)
chain: T1 sequence (O75554 122-196 limits assumed)
In the case of B1, the Kd with Dex-2 is 1.2 µM; with Dex-3 it was 1.6 µM; with Dex-1, 7 µM; in the assay with hPG-1, 6.3 µM; with pHPMA-2, 3.3 µM; with P1 it was > 1000 µM. The molecule also came in with a Kd with pHPMA-1 of 5 µM.

The values are drawn from publication PMC4464424, “Peptide–polymer ligands for a tandem WW-domain, an adaptive multivalent protein–protein interaction: lessons on the thermodynamic fitness of flexible ligands” (Beilstein Journal of Organic Chemistry, 2015).
